Experimental data published in ChEMBL document CHEMBL3603760, “Potential therapeutic agents for circulatory diseases from Bauhinia glauca Benth.subsp. pernervosa. (Da Ye Guan Men)” (Bioorg Med Chem Lett, 2015).
Calls of active or inactive are those of the source. No cut-off for these calls is given here.

Legend:
Type in all cases: functional
[1] = (§1) Anti-platelet activity in rat platelet rich plasma assessed as inhibition of ADP and calcium-induced platelet aggregation at 100 uM pre-incubated at 37 degC for 10 mins and measured 30 mins after ADP and calcium addition
Platelet [2] = assay: as §1
Platelet [3] = assay: Potency index, ratio of anti-platelet activity for aspirin to test compound in rat platelet rich plasma
[4] = Anti-platelet activity in rat platelet rich plasma assessed as inhibition of ADP and calcium-induced platelet aggregation incubated at 37 degC for 10 mins and measured 30 mins after ADP and calcium addition
[5] = Anti-platelet activity in rat platelet rich plasma assessed as inhibition of ADP and calcium-induced platelet aggregation at 1650 uM incubated at 37 degC for 10 mins and measured 30 mins after ADP and calcium addition

| Compound | inhibition at 100 µM [1] [%] | inhibition (Platelet [2]) | further results |
| --- | --- | --- | --- |
| COC(=O)c1cc(O)c(O)c(O)c1 [GALLIC ACID METHYL ESTER] | 16.2 |  |  |
| C[C@@H]1O[C@@H](Oc2cc(O)c3c(=O)cc(-c4cc(O)c(O)c(O)c4)oc3c2)[C@H](O)[C@H](O)[C@H]1O | 41.3 |  |  |
| COc1c(-c2ccc(O)c(O)c2)oc2cc(O)cc(O)c2c1=O |  | inactive |  |
| O=c1c(O)c(-c2ccc(O)cc2)oc2cc(O)cc(O)c12 |  | inactive |  |
| COc1c(C)c(O)c2c(=O)c(O)c(-c3ccc(O)cc3)oc2c1C |  | inactive |  |
| COc1cc(-c2cc(=O)c3c(O)cc(O)cc3o2)ccc1O [CHRYSOERIOL] | 92.3 |  | Ratio (Platelet [3]): 2; IC50 [4]: 27.1 µM |
| Cc1c(O)cc2oc(-c3ccc(O)cc3)c(O)c(=O)c2c1O | 26 |  |  |
| Cc1c(O)c(C)c2c(c1O)C(=O)C[C@@H](c1ccc(O)cc1)O2 |  | inactive |  |
| COc1cc(C(=O)O)cc(OC)c1O |  | inactive |  |
| O=c1ccoc2cc(O)cc(O)c12 | 6.83 |  |  |
| COc1cc(-c2oc3cc(O)cc(O)c3c(=O)c2O)ccc1O |  | inactive |  |
| C[C@H]1O[C@@H](Oc2c(-c3cc(O)c(O)c(O)c3)oc3cc(O)cc(O)c3c2=O)[C@@H](O)[C@@H](O)[C@@H]1O |  | inactive |  |
| O=c1c(O)c(-c2ccc(O)c(O)c2)oc2cc(O)cc(O)c12 [QUERCETIN] | 16.8 |  |  |
| COc1cc(O[C@@H]2O[C@H](COC(=O)c3cc(O)c(O)c(O)c3)[C@@H](O)[C@H](O)[C@H]2O)ccc1O | 22.1 |  |  |
| COc1ccc(C(=O)O)cc1O |  | inactive |  |
| O=C(O)c1cc(O)c(O)c(O)c1 |  | inactive |  |
| O=c1c(O[C@@H]2O[C@H](CO)[C@H](O)[C@H](O)[C@H]2O)c(-c2ccc(O)c(O)c2)oc2cc(O)cc(O)c12 [HYPEROSIDE] | 35.2 |  |  |
| O=C1C[C@@H](c2ccc(O)c(O)c2)Oc2cc(O)cc(O)c21 [ERIODICTYOL] | 24.5 |  |  |
| Oc1cc(O)c2c(c1)O[C@H](c1ccc(O)c(O)c1)[C@@H](O)C2 [CIANIDANOL] | 35.1 |  |  |
| COc1c(-c2ccc(O)c(O)c2)oc2cc(O)ccc2c1=O |  | inactive |  |
| C[C@@H]1O[C@@H](Oc2c(-c3ccc(O)c(O)c3)oc3cc(O)cc(O)c3c2=O)[C@H](O)[C@H](O)[C@H]1O [QUERCITRIN] | 2.13 |  |  |
| O=c1c(O[C@@H]2O[C@H](CO)[C@@H](O)[C@H](O)[C@H]2O)c(-c2ccc(O)c(O)c2)oc2cc(O)cc(O)c12 [ISOQUERCETIN] | 36.2 |  |  |
| O=C(O)/C=C/c1ccccc1 [CINNAMIC ACID] | 8.69 |  |  |
| O=C(O)c1ccc(O)c(O)c1 |  | inactive |  |
| O=c1cc(-c2ccc(O)c(O)c2)oc2cc(O)ccc12 | 13.7 |  |  |
| O=c1c(O[C@@H]2OC[C@H](O)[C@H](O)[C@H]2O)c(-c2ccc(O)c(O)c2)oc2cc(O)cc(O)c12 [GUAJAVERIN] | 7.29 |  |  |
| O=c1cc(-c2ccc(O)c(O)c2)oc2cc(O)cc(O)c12 [LUTEOLIN] | 26.6 |  |  |
| COc1c(O)cc(C=O)cc1O | 20.8 |  |  |
| CC(=O)Oc1ccccc1C(=O)O [ASPIRIN] |  |  | inhibition at 1650 µM [5]: 41.5% |
| COc1cc(O[C@@H]2O[C@H](COC(=O)c3cc(O)c(O)c(O)c3)[C@@H](O)[C@H](O)[C@H]2O)cc(O)c1OC |  | inactive |  |
